# In PubChem BioAssay AID1996:
# Conditions: buffer; pH 7.4; 200.0 µM
row,SMILES,solubility kinetic [µg/mL]
1,Cc1cc(C)nc(N2CCN(c3ccc(F)cc3)CC2)n1,2.1
2,CCN(CC)CCOc1ccc(/C(=C(/Cl)c2ccccc2)c2ccccc2)cc1,1.5
3,O=C(CCc1ccccc1)NC1C2CC3CC(C2)CC1C3 (centres undefined),34.6
4,N#Cc1ccc(N2CCCNCC2)nc1,> 30.3
5,COc1cccc(C(=O)OCC(=O)Nc2ccc3c(c2)OCCO3)c1,8
6,CC(C)CC(NC(=O)C1CCCCC1)C(=O)NC(C)c1ccccc1 (centres undefined),24.4
7,COC(=O)c1sccc1NC(=S)Nc1cc(C)ccc1OC,36.3
8,CCCCCC(=O)NC(=S)Nc1cccc(-c2nc3ncccc3o2)c1,< 0.2
9,CCOC(=O)C1CCN(C(=O)Nc2ccc(C)c(Cl)c2)CC1,6.9
10,Cc1onc(-c2c(Cl)cccc2Cl)c1C(=O)Nc1nccs1,4.7
11,O=C(COC(=O)c1cc(S(=O)(=O)N2CCOCC2)ccc1F)NCc1ccc2c(c1)OCO2,> 72.1
12,COc1ccc(CNC(=O)CN2CCN(S(=O)(=O)c3c(C)c(C)cc(C)c3C)CC2)cc1OC,3.5
13,O=C(CC1SC(N2CCCCC2)=NC1=O)Nc1cccc(C(=O)NCc2ccccc2)c1 (centres undefined),> 67.6
14,O=C(CCC(=O)c1ccc(-c2ccccc2)cc1)Nc1cccnc1,0.7
15,CCN(C(=O)C(C)Sc1nnc(-c2ccncc2)n1C)C1CCCCC1 (centres undefined),> 56
16,CCn1ccnc1CNC(=O)c1ccc2oc(C(C)C)nc2c1,> 46.9
17,O=C(CN1CCCC1)N1CCN(c2ccccc2)CC1,> 41
18,Cc1ccc(C2(O)CN3CCC2CC3)cc1.Cl (centres undefined),> 38.1
19,COc1ccc(N2CCN(CC(=O)NCc3ccc(Cl)cc3)CC2)cc1,2.2

row,SMILES,solubility kinetic [µg/mL]
1,Cc1nn(C)c(C)c1NS(=O)(=O)c1ccc(N2CCCC2=O)cc1,> 52.3
2,Cc1ccc(C(=O)NCCCNC(=O)COc2ccc(Cl)cc2)cn1,49.7
3,O=C(COc1ccc(F)cc1F)Nc1cccnc1,36.2
4,CCc1ccc(C(=O)Nc2cc(S(=O)(=O)N3CCOCC3)ccc2N2CCOCC2)cc1,2.5
5,N#CCC(=O)Nc1ccc(C(=O)NCc2ccccn2)cc1,> 44.1
6,Cc1cc([N+](=O)[O-])c2c(c1C)C1C=CCC1C(c1ccccn1)N2 (centres undefined),9.3
7,Cc1csc2c(=O)sc(NC(=O)c3cccs3)nc12,0.6
8,CN(C)C1(CNC(=O)Cc2ccccc2F)CCCCC1,42.2
9,CC1CCCCC12NC(=O)N(CC(=O)N1CCN(c3ccccc3)CC1)C2=O (centres undefined),> 57.7
10,Cc1ccc(N=Cc2cc3c(cc2[N+](=O)[O-])OCO3)cc1[N+](=O)[O-],20.5
11,CC(c1nccs1)N(C)c1nc2nonc2nc1NC1CC1 (centres undefined),9.6
12,COc1ccc(NS(=O)(=O)c2cn(C)cn2)cc1OC,32.9
13,CC(=O)c1cccc(Oc2ncccn2)c1,> 32.1
14,CC(=O)c1ccc(S(=O)(=O)N2CCNC(=O)C2)cc1,> 42.3
15,C=C(C)Cn1cnc2c(oc3nc4c(cc32)CCCC4)c1=O,2.5
16,CC1CCN(C(=O)c2cc(-c3ccc4c(c3)OCO4)on2)CC1,28.2
17,COc1cccc(N2CCN(CC(=O)NC(C)c3ccccc3)CC2)c1 (centres undefined),45
18,S=C(Nc1ccc2c(c1)OCCO2)Nc1ccc2c(c1)OCO2,> 49.6

# Further lines, results first:
row,solubility kinetic [µg/mL],SMILES
1,> 40.5,O=S1(=O)NC(=NCCOCCO)c2ccccc21
2,1,Cc1ccc(-c2onc3ccc(C4OCCO4)cc23)cc1
3,> 46.5,O=c1cc(COc2ncnc3ccccc23)nc2sccn12
4,34.3,c1nc2ccc(Cc3ccc4nc[nH]c4c3)cc2[nH]1
5,> 38.7,CC(=O)C1=NOC2C(=O)N(c3ccccc3)C(=O)C12 (centres undefined)
6,40.1,Cc1cc(C(=O)OCC(N)=O)c(C)n1-c1ccccc1
7,> 49.4,Cc1ccccc1SCC(=O)OCC(=O)NCc1ccccc1
8,> 35.9,CCn1c(-c2ccc[nH]c2=O)nc2ccccc21
9,41.2,Cc1c(C)n(Cc2ccccc2)c2ncnc(NCCO)c12
10,15.6,COC(=O)c1oc(-c2ccccc2)nc1C
11,0.8,COc1ccc(-c2cc(=O)[nH]c(N3CCN(Cc4ccccc4)CC3)n2)cc1
12,2.4,Cc1ccc(C(=O)Nc2nc3ccccc3[nH]2)cc1
13,34.6,CN(CCO)CCOCCOc1cccc2ccccc12
14,13.4,COc1ccc2c(c1)C(C)CC(C)(C)N2C(=O)Nc1ccccc1 (centres undefined)
15,28.5,Cc1ccc(NC(=O)Cc2ccc(Cl)cc2)nc1
16,1.1,O=C(Nc1ccc(F)cc1)Nc1sccc1-c1nc2ccccc2s1
17,> 32.1,Cc1ccc(CNC(=O)c2ccc[nH]2)cc1
18,33.2,COCc1c(C(=O)OCc2c(C)noc2C)oc2ccccc12
19,36.5,Cc1ccccc1NC(=O)c1ccccc1-c1ccccc1
20,> 59.4,Cc1ccc(S(=O)(=O)NCC(=O)NNC(=O)c2ccccc2Cl)cc1C
21,6.2,CC(C)CCNC1c2ccccc2C(=O)N1Cc1ccccc1.Cl (centres undefined)
22,0.9,O=C(c1cccc(Cl)c1)N1CCn2c1nc1ccccc12
